The results in this text go back to ChEMBL document CHEMBL4400573, “Synthesis and structure-activity relationships of pyrazine-2-carboxamide derivatives as novel echinoderm microtubule-associated protein-like 4 (EML4)-anaplastic lymphoma kinase (ALK) inhibitors” (Bioorg Med Chem, 2019).

As a reminder, the IC50 is the point on the concentration scale where inhibition reaches its midpoint. For orientation: solubility means the concentration that dissolves in the medium under given conditions.

One series has as its system BaF3. As to the kind of experiment: Antiproliferative activity against mouse BAF3 cells expressing EML4-fused ALK variant 1 assessed as reduction in cell viability measured after 2 days by alamar blue assay. As to conditions: BaF3, 48 h. Format: functional, cell-based.
Series [1] is described as follows: Inhibition of EML4-fused ALK variant 1 (unknown origin) expressed in mouse BAF3 cells using peptide substrate measured after 1 hr by HTRF assay. Format: cell-based, Homo sapiens. Background: In TR-FRET formats the signal depends on donor and acceptor labels being close together.
Series [2] in a line: Toxicity in Balb/c nude mouse xenografted with mouse 3T3 cells expressing EML4-fused ALK variant 1 assessed as effect on body weight at 10 mg/kg, po administered once daily for 5 days. As to conditions: in vivo, 120 h. Format: organism-based.
Series [3] has as its system NIH3T3. As to the kind of experiment: Antitumor activity against mouse 3T3 cells expressing EML4-fused ALK variant 1 xenografted in Balb/c nude mouse assessed as tumor growth inhibition at 10 mg/kg, po administered once daily for 5 days measured post last dose relative to control. Format: functional. The arrangement: Activity: scale not given: the % may be the effect or the level left.

A short description of series [4]: Permeability of the compound at pH 6.5 measured after 2 hrs by PAMPA. Format: ADME. As to conditions: read-out: permeability. (The PAMPA barrier holds no transporters, so it reflects passive diffusion.)
In series [5] the test system is NIH3T3. As to the kind of experiment: Antitumor activity against mouse 3T3 cells expressing EML4-fused ALK variant 1 xenografted in Balb/c nude mouse assessed as tumor regression at 10 mg/kg, po administered once daily for 5 days measured post last dose relative to control. Format: functional.
Series [6] in a line: Aqueous solubility of the compound in pH 6.8 JP2 fluid measured after 20 hrs by HPLC analysis. Format: physicochemical.

≈ marks a conversion by molar mass, not a printed value.

As to `CCc1nc(C(N)=O)c(Nc2ccc(N3CCC(N4CCN(C)CC4)CC3)c(OC)c2)nc1N[C@@H]1CCCC[C@H]1O` (racemic), the IC50 with BaF3 was 48 nM; in series [1], 13 nM.

Take `CS(=O)(=O)c1cccc(Nc2nc(N[C@H]3CC[C@H](O)CC3)c(Cl)nc2C(N)=O)c1`: the IC50 in series [1] stood at 82 nM.

Compound `CS(=O)(=O)c1cccc(Nc2nc(N[C@H]3CC[C@H](O)CC3)c(C3CC3)nc2C(N)=O)c1` displayed a concentration for half-maximal inhibition (IC50) in series [1] of 37 nM.

With `CCc1nc(C(N)=O)c(Nc2ccc(N3CCC(N4CCN(C)CC4)CC3)c(OC)c2)nc1NC(C)C`, the half-inhibitory concentration (IC50) with BaF3 is 12 nM; in series [1], 0.8 nM.

Compound `CS(=O)(=O)c1cccc(Nc2nc(N[C@H]3CC[C@H](O)CC3)cnc2C(N)=O)c1` had an IC50 in series [1] of 270 nM.

`COc1cc(N2CCC(N3CCN(C)CC3)CC2)ccc1Nc1ncnc(Nc2ccccc2S(=O)(=O)C(C)C)n1` [ASP-3026]: the Activity entry in series [2] was “Non-Toxic”. Further, the inhibition in vivo at 10 mg/kg in the series on NIH3T3 [3] (Mus musculus, NIH3T3, po, 120 h, read-out: TGI) was found to be 81%. This compound showed a concentration for half-maximal inhibition (IC50) in series [1] of 17 nM.

As for `CCNc1nc(Nc2ccc(N3CCC(N4CCN(C)CC4)CC3)c(OC)c2)c(C(N)=O)nc1CC`, the results for the half-inhibitory concentration (IC50) (in the series on BaF3; in series [1]) were 16 nM and 2.5 nM, respectively.

With `CCc1nc(C(N)=O)c(Nc2ccc(N3CCC(N4CCN(C)CC4)CC3)c(OC)c2)nc1N(C)CC`, the 50% inhibitory concentration (IC50) with BaF3 was 31 nM; in series [1], 6.6 nM.

For `Cc1nc(C(N)=O)c(Nc2cccc(S(C)(=O)=O)c2)nc1N[C@H]1CC[C@H](O)CC1`, inhibition in series [1] was half-maximal at 51 nM (IC50).

Take `CCc1nc(C(N)=O)c(Nc2ccc(N3CCC(N4CCN(C)CC4)CC3)c(OC)c2)nc1N[C@H]1CC[C@H](OC)CC1`: the Activity entry is “Toxic” in series [2] and 62% in the series on NIH3T3 [5]. Also, in series [4], the Papp at 2 h was determined as 21 ×10⁻⁶ cm/s. In addition, the IC50 came to 9.7 nM in the series with BaF3 and 1 nM in series [1].

Compound `CS(=O)(=O)c1cccc(Nc2nc(N[C@H]3CC[C@H](O)CC3)c(Br)nc2C(N)=O)c1` showed a concentration for half-maximal inhibition (IC50) in series [1] of 82 nM.

In series [1], `CCCc1nc(C(N)=O)c(Nc2cccc(S(C)(=O)=O)c2)nc1N[C@H]1CC[C@H](O)CC1` gave an IC50 of 23 nM.

On to `CCc1nc(C(N)=O)c(Nc2ccc(N3CCC(N4CCN(C)CC4)CC3)cc2OC)nc1N[C@H]1CC[C@H](O)CC1`, for which the solubility at 20 h in series [6] is ≥ 100 µM. In addition, the values for the 50% inhibitory concentration (IC50) (in the series on BaF3; in series [1]) were 85 nM and 8.9 nM, respectively.

Regarding `CCc1nc(C(N)=O)c(Nc2cccc(S(C)(=O)=O)c2)nc1N[C@H]1CC[C@H](O)CC1`, the solubility at 20 h in series [6] is 1.1 µM (≈ 0.477 µg/mL). The IC50 in the series on BaF3 came out at 68 nM; in series [1] it was 17 nM.

`CCc1nc(C(N)=O)c(Nc2ccc(N3CCC(N4CCN(C)CC4)CC3)c(OC)c2)nc1N[C@H]1CC[C@H](O)CC1`: the solubility at 20 h in series [6] is ≥ 100 µM. Moreover, the values for the Activity entry (in series [2]; in the series on NIH3T3 [3]) were “Toxic” and 34%, respectively. The Papp at 2 h in series [4] came out at 1.1 ×10⁻⁶ cm/s. The IC50 with BaF3 was found to be 9.5 nM; in series [1] it was 0.37 nM.
